According to US10251958B2 (NEWSOUTH INNOVATIONS PTY LIMITED, priority 2013, dated 2019):
Oligonucleotides are written 5' to 3', each unit as a sugar letter and its base; * is a phosphorothioate linkage, no mark a phosphodiester; rarer units and linkages stand in square brackets, end groups in braces. Plain capitals give the bases only. d = 2'-deoxy (DNA)

Columns and labels:
[1] = test system: prostate cancer cell lines; test: Cytotoxicity against three prostate cancer cell lines (Example 4); format: cell-based; conditions: chosen concentration range
Procedure: The product was tested for particle size and cytotoxicity against prostate cancer.

cancer cells = conditions: most effective free Curcumin study results; read-out: free Curcumin concentration to bring about 50% cell death; cited from earlier work
[2] = Nile Red encapsulation efficiency by Fluorescence Spectroscopy; format: physicochemical; conditions: preliminary polymer-protein aggregates loaded with Nile Red
From the text: After the formation of polymer-protein Curcumin carrying micelles of a desirable size, there was a clear need to determine the amount of Curcumin actually encapsulated. Preliminary aggregates were loaded with Nile Red dye to act as a makeshift drug and analysed by Fluorescence Spectroscopy. After comparison to a Calibration curve established from analysis of Nile Red concentrations dissolved in DMSO solvent, the intensity was backcalculated to yield a 30.4% encapsulation efficiency.

[3] = DLS hydrodynamic diameter of BSA conjugated copolymer (Example 2); format: physicochemical; conditions: for PDi: 0.1M PBS pH 7, DLS
Procedure: ^1H-NMR spectra were acquired to characterised compounds using CDCl3 or d-DMSO with a 300 MHz spectrometer. Thermogravimetric analysis (TGA) was carried out using TG5000 to quantify the amount of platinum conjugated to the copolymers. The sample (≤5 mg) was placed on a thermo-balance and heated from room temperature to 600° C. at 20° C./min, and held for an isothermal period of 60 minutes under nitrogen atmosphere. Diameter size of copolymers in 0.1M PBS buffer pH 7.0 was measured using a Malvern dynamic light scattering instrument (DLS) in a disposable plastic cuvette (1 cm path length). Fluorescence measurements were performed on Agilent Cary Eclipse Fluorescence Spectrometer using a 1 cm quartz cuvette. Fluorescence spectra were recorded between 400-800 nm at λex=495 nm, λem=520 nm with entrance and exit slit width of […]. SDS-PAGE was performed using standard techniques using a premixed electrophoresis buffer which contains 25 mM Tris, 192 mM glycine and 0.1% SDS (Tris/Glycine/SDS buffer) to determine the conjugation efficiency between the BSA-FITC and the copolymer. Samples were prepared for electrophoresis without the use of a reducing agent. The samples were mixed with bromophenol blue (0.01% w/v) solution as the marker. The samples were resolved through a 10% polyacrylamide gel which was performed using a BioRad Mini-Protean II electrophoresis setup at a constant voltage (150 V). The samples were stained using Colloidal Blue Coomassie G-250 (Bio-Rad), and left overnight. Gel images were recorded using a Bio-Rad GS-800 calibrated densitometer. Native BSA was used as a control.
The size and shape of the BSA conjugated copolymer in PBS solution was investigated using DLS and TEM.

[4] = Hydrodynamic diameter and zeta potential of materials and complexes (Example 3); format: physicochemical; conditions: pH 7; ISIS 5132 200 ug/ml, BSA 1 mg/ml, PDMAEMA 0.21 mg/ml
Procedure: The resulting conjugates were dialysed in 0.05 M PBS (pH5) for 12 h by changing solvent every 2 h. […] All the conditions were kept consistent to the corresponding oligonucleotide samples. In addition, the oligonucleotide transfection efficiency of the PEGMEMA-PDMAEAM cationic block copolymer was investigated. The same protocol was adopted to make the polyion complex micelles from this polymer solution.
The condensation of the oligonucleotide was therefore carried out when the conjugate solution was at pH5 and the oligonucleotide was dissolved in MilliQ water. The albumin-polymer conjugates with a pH of 5 was then slowly added to the solutions of ISIS 5132 with the concentration of 200 μg/ml (ζ=−29.87 mV at pH7). […] After the complex micelle was stable, the system was brought back to pH7. There are several reasons for this: to reduce the aggregation of the micelle, to protect the oligonucleotide and to keep the neutral environment for cells in the afterward cytotoxicity assays.

In the case of `COc1cc(/C=C/C(=O)CC(=O)/C=C/c2ccc(O)c(OC)c2)ccc1O` [Curcumin], the toxicity [1] is given as “only negligible toxicity” and the IC50 (cancer cells) is given as 10 µM.

In the case of `CCN(CC)c1ccc2nc3c4ccccc4c(=O)cc-3oc2c1` [Nile Red], the “Nile Red encapsulation efficiency” value [2] is reported as 30.4%.

In the case of BSA-FITC, the “Dh number (d/nm)” value ([3]; 0.1M PBS pH 7, 25° C.) is reported as 7.44 nm and the PDi [3] is reported as 0.58.

In the case of “ISIS 5132: 20-base antisense phosphorothioate oligodeoxyribonucleotide: 5′TCCCGCCTGTGACATGCATT3′ (DNA dT*dC*dC*dC*dG*dC*dC*dT*dG*dT*dG*dA*dC*dA*dT*dG*dC*dA*dT*dT)”, the Dh [4] is reported as 0-107 nm and the Zeta potential [4] is reported as −29.87 mV.

For P(HPMA13-co-[(AC-DAP)9-Pt8]), the PDi [3] was 0.14.
